Laboratory results: US20210154210A1, “Ophthalmic Formulations and Uses Thereof” (priority 2018, published 2021)

System: corneal endothelial cells
Assay: Corneal endothelial cell counting by specular microscopy
Format: in vivo, rabbits
Details: for higher cell density compared to negative control group / higher cell density compared to placebo group: 25 ng/mL (group B); for degeneration rate / effect on slowing down and stopping apoptosis and/or autophagy: 25 ng/mL
Description: All experiments were designed and carried out in a randomized, double blind manner using placebos. Rabbits were housed for one week prior to the study, fed on standard laboratory food and allowed free access to water in a room at standard temperature and humidity conditions in a 12-h light/12-h dark cycle.
Counting Corneal Cell number:
Any excess was discarded, and a fresh batch prepared for the next 15-days. Effects of the eye drop on corneal endothelium as well as cell numbers and shapes were observed by means of specular microscopy (NIDEK-CEM 530, Japan) at the end of months 0, 1, 3 and 6. Rabbits were euthanatized by an intravenous injection of Tanax (0.3 mL/kg). Vitreous (0.2 mL) was aspirated with a 25-gauge needle attached to a 5-mL disposable syringe, driven at 3.0 mm from the limbus, and guided toward the center of the eyeball, taking care to avoid bleeding when the needle was introduced (vitreous samples were stored at −80° C. until the analysis). Eye tissue was fixed with 4% formaldehyde and embedded in paraffin for histopathological assessment. The individual values for three replicates were determined and the mean values were reported.
All analyses were carried out using GraphPad Prism 5.0 (GraphPad Software, San Diego, Calif., USA). Differences were considered to be significant at a level of P 0.001.

[1] = compared to the negative control group

## CC(C)(O)[C@@H]1CC[C@](C)([C@H]2[C@@H](O)C[C@@]3(C)[C@@H]4C[C@H](O)[C@H]5C(C)(C)[C@@H](O)CC[C@@]56C[C@@]46CC[C@]23C)O1 [cycloastragenol, Cycloastragenol]
Month 1
  higher cell density compared to negative control group: about 4%
  higher cell density compared to placebo group: about 4%
Month 3
  higher cell density compared to negative control group: ~18%
  higher cell density compared to placebo group: ~18%
Month 6
  higher cell density compared to negative control group: ~19%
  higher cell density compared to placebo group: ~20%
[1]
  degeneration rate: 0%
  effect on slowing down and stopping apoptosis and/or autophagy: 100%
Compared to the placebo group
  degeneration rate: 0%
  effect on slowing down and stopping apoptosis and/or autophagy: 100%
